Assay results taken from ChEMBL document CHEMBL4393657, “Tetrazole hybrids and their antifungal activities” (2019).
In brackets after ≈: the same amount, converted by molar mass.

Columns and labels:
Type in all cases: functional
[1] = system: Cryptococcus neoformans; test: Antifungal activity against Cryptococcus neoformans LA314 assessed as reduction in fungal cell growth incubated for 48 hrs by broth microdilution method; details: LA314, 48 h
[2] = system: Nakaseomyces glabratus; test: Antifungal activity against Candida glabrata assessed as reduction in fungal cell growth incubated for 48 hrs by broth microdilution method
[3] = system: Candida parapsilosis; test: Antifungal activity against Candida parapsilosis ATCC 22019 assessed as reduction in fungal cell growth incubated for 48 hrs by broth microdilution method; details: Lodderomyces parapsilosis, ATCC 22019, 48 h
[4] = system: Pichia kudriavzevii; test: Antifungal activity against Candida krusei assessed as reduction in fungal cell growth incubated for 48 hrs by broth microdilution method
[5] = system: Candida albicans; test: Antifungal activity against Candida albicans assessed as reduction in fungal cell growth incubated for 48 hrs by broth microdilution method
[6] = system: Candida tropicalis; test: Antifungal activity against Candida tropicalis assessed as reduction in fungal cell growth incubated for 48 hrs by broth microdilution method
[7] = system: Aspergillus niger; test: Antifungal activity against Aspergillus niger assessed as reduction in fungal cell growth incubated for 72 hrs by broth microdilution method

SMILES | MIC [1] [µg/mL] | MIC [2] [µg/mL] | MIC [3] [µg/mL] | MIC [4] [µg/mL] | MIC [5] [µg/mL] | MIC [6] [µg/mL] | MIC [7] [µg/mL]
COc1ccc(N2CCN(CCc3nnnn3CC(O)(Cn3cncn3)c3ccc(F)cc3F)CC2)cc1 (stereo unspecified) | 0.5 to 16 (≈ 0.951 to 30.4 µM) | 0.5 to 16 (≈ 0.951 to 30.4 µM) | 0.5 to 16 (≈ 0.951 to 30.4 µM) | 0.5 to 16 (≈ 0.951 to 30.4 µM) | 0.5 to 16 (≈ 0.951 to 30.4 µM) | 0.5 to 16 (≈ 0.951 to 30.4 µM) | 0.5 to 16 (≈ 0.951 to 30.4 µM)
CC(n1nnnc1CCN1CCN(c2cccc(C(F)(F)F)c2)CC1)C(O)(Cn1cncn1)c1ccc(F)cc1F (stereo unspecified) | 0.5 to 16 (≈ 0.866 to 27.7 µM) | 0.5 to 16 (≈ 0.866 to 27.7 µM) | 0.5 to 16 (≈ 0.866 to 27.7 µM) | 0.5 to 16 (≈ 0.866 to 27.7 µM) | 0.5 to 16 (≈ 0.866 to 27.7 µM) | 0.5 to 16 (≈ 0.866 to 27.7 µM) | 0.5 to 16 (≈ 0.866 to 27.7 µM)
CCCCOc1ccccc1N1CCN(CCc2nnnn2CC(O)(Cn2cncn2)c2ccc(F)cc2F)CC1 (stereo unspecified) | 0.5 to 16 (≈ 0.881 to 28.2 µM) | 0.5 to 16 (≈ 0.881 to 28.2 µM) | 0.5 to 16 (≈ 0.881 to 28.2 µM) | 0.5 to 16 (≈ 0.881 to 28.2 µM) | 0.5 to 16 (≈ 0.881 to 28.2 µM) | 0.5 to 16 (≈ 0.881 to 28.2 µM) | 0.5 to 16 (≈ 0.881 to 28.2 µM)
OC(Cn1cncn1)(Cn1nnc(CCN2CCN(c3c(Cl)cccc3Cl)CC2)n1)c1ccc(F)cc1F (stereo unspecified) | 1 to 16 (≈ 1.77 to 28.3 µM) | 1 to 16 (≈ 1.77 to 28.3 µM) | 1 to 16 (≈ 1.77 to 28.3 µM) | 1 to 16 (≈ 1.77 to 28.3 µM) | 1 to 16 (≈ 1.77 to 28.3 µM) | 1 to 16 (≈ 1.77 to 28.3 µM) | 1 to 16 (≈ 1.77 to 28.3 µM)
C[C@H](n1nnnc1CCN1CCN(C(c2ccccc2)c2ccccc2)CC1)[C@](O)(Cn1cncn1)c1ccc(F)cc1F | 0.12 to 16 (≈ 0.2 to 26.7 µM) | 0.12 to 16 (≈ 0.2 to 26.7 µM) | 0.12 to 16 (≈ 0.2 to 26.7 µM) | 0.12 to 16 (≈ 0.2 to 26.7 µM) | 0.12 to 16 (≈ 0.2 to 26.7 µM) | 0.12 to 16 (≈ 0.2 to 26.7 µM) | 0.12 to 16 (≈ 0.2 to 26.7 µM)
COc1ccccc1N1CCN(CCc2nnnn2[C@@H](C)[C@](O)(Cn2cncn2)c2ccc(F)cc2F)CC1 | 0.12 to 16 (≈ 0.222 to 29.7 µM) | 0.12 to 16 (≈ 0.222 to 29.7 µM) | 0.12 to 16 (≈ 0.222 to 29.7 µM) | 0.12 to 16 (≈ 0.222 to 29.7 µM) | 0.12 to 16 (≈ 0.222 to 29.7 µM) | 0.12 to 16 (≈ 0.222 to 29.7 µM) | 0.12 to 16 (≈ 0.222 to 29.7 µM)
COc1ccccc1N1CCN(CCc2nnnn2CC(O)(Cn2cncn2)c2ccc(F)cc2F)CC1 (stereo unspecified) | 0.5 to 16 (≈ 0.951 to 30.4 µM) | 0.5 to 16 (≈ 0.951 to 30.4 µM) | 0.5 to 16 (≈ 0.951 to 30.4 µM) | 0.5 to 16 (≈ 0.951 to 30.4 µM) | 0.5 to 16 (≈ 0.951 to 30.4 µM) | 0.5 to 16 (≈ 0.951 to 30.4 µM) | 0.5 to 16 (≈ 0.951 to 30.4 µM)
C[C@H](n1nnc(CCN2CCN(c3ccc(F)cc3)CC2)n1)[C@](O)(Cn1cncn1)c1ccc(F)cc1F | 0.25 to 16 (≈ 0.474 to 30.3 µM) | 0.25 to 16 (≈ 0.474 to 30.3 µM) | 0.25 to 16 (≈ 0.474 to 30.3 µM) | 0.25 to 16 (≈ 0.474 to 30.3 µM) | 0.25 to 16 (≈ 0.474 to 30.3 µM) | 0.25 to 16 (≈ 0.474 to 30.3 µM) | 0.25 to 16 (≈ 0.474 to 30.3 µM)
COc1ccccc1N1CCN(CCc2nnn(CC(O)(Cn3cncn3)c3ccc(F)cc3F)n2)CC1 (stereo unspecified) | 1 to 16 (≈ 1.9 to 30.4 µM) | 1 to 16 (≈ 1.9 to 30.4 µM) | 1 to 16 (≈ 1.9 to 30.4 µM) | 1 to 16 (≈ 1.9 to 30.4 µM) | 1 to 16 (≈ 1.9 to 30.4 µM) | 1 to 16 (≈ 1.9 to 30.4 µM) | 1 to 16 (≈ 1.9 to 30.4 µM)
CC(n1nnc(CCN2CCN(c3cccc(Cl)c3)CC2)n1)C(O)(Cn1cncn1)c1ccc(F)cc1F (stereo unspecified) | 1 to 16 (≈ 1.84 to 29.4 µM) | 1 to 16 (≈ 1.84 to 29.4 µM) | 1 to 16 (≈ 1.84 to 29.4 µM) | 1 to 16 (≈ 1.84 to 29.4 µM) | 1 to 16 (≈ 1.84 to 29.4 µM) | 1 to 16 (≈ 1.84 to 29.4 µM) | 1 to 16 (≈ 1.84 to 29.4 µM)
COc1ccc(N2CCN(CCc3nnn(C(C)C(O)(Cn4cncn4)c4ccc(F)cc4F)n3)CC2)cc1 (stereo unspecified) | 1 to 16 (≈ 1.85 to 29.7 µM) | 1 to 16 (≈ 1.85 to 29.7 µM) | 1 to 16 (≈ 1.85 to 29.7 µM) | 1 to 16 (≈ 1.85 to 29.7 µM) | 1 to 16 (≈ 1.85 to 29.7 µM) | 1 to 16 (≈ 1.85 to 29.7 µM) | 1 to 16 (≈ 1.85 to 29.7 µM)
OC(Cn1cncn1)(Cn1nnnc1CCN1CCN(c2ccccn2)CC1)c1ccc(F)cc1F (stereo unspecified) | 0.5 to 16 (≈ 1.01 to 32.2 µM) | 0.5 to 16 (≈ 1.01 to 32.2 µM) | 0.5 to 16 (≈ 1.01 to 32.2 µM) | 0.5 to 16 (≈ 1.01 to 32.2 µM) | 0.5 to 16 (≈ 1.01 to 32.2 µM) | 0.5 to 16 (≈ 1.01 to 32.2 µM) | 0.5 to 16 (≈ 1.01 to 32.2 µM)
OC(Cn1cncn1)(Cn1nnnc1CCN1CCN(c2ccccc2)CC1)c1ccc(F)cc1F (stereo unspecified) | 0.5 to 16 (≈ 1.01 to 32.3 µM) | 0.5 to 16 (≈ 1.01 to 32.3 µM) | 0.5 to 16 (≈ 1.01 to 32.3 µM) | 0.5 to 16 (≈ 1.01 to 32.3 µM) | 0.5 to 16 (≈ 1.01 to 32.3 µM) | 0.5 to 16 (≈ 1.01 to 32.3 µM) | 0.5 to 16 (≈ 1.01 to 32.3 µM)
